Laboratory results published in PubChem BioAssay (NCI).
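How tested: cells in 96-well plates exposed to compound for 48 hours at five concentrations. Abbreviation: GI50, concentration required for 50% inhibition of growth. TGI: concentration producing complete growth inhibition.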

How the values were obtained:
Assay in all cases: DTP human tumour cell line panel, 48 h; in the data active = GI50 below about 0.43 µM; inactive = the rest
786-0 renal = system: 786-0 renal
A498 renal = system: A498 renal
A549 NSCLC = system: A549 NSCLC
ACHN renal = system: ACHN renal
BT-549 breast = system: BT-549 breast
CCRF-CEM leukemia = system: CCRF-CEM leukemia
COLO 205 colon = system: COLO 205 colon
DU-145 prostate = system: DU-145 prostate
EKVX NSCLC = system: EKVX NSCLC
HCC-2998 colon = system: HCC-2998 colon
HCT-116 colon = system: HCT-116 colon
HCT-15 colon = system: HCT-15 colon
HL-60(TB) leukemia = system: HL-60(TB) leukemia
HOP-62 NSCLC = system: HOP-62 NSCLC
HS 578T breast = system: HS 578T breast
HT29 colon = system: HT29 colon
IGROV1 ovarian = system: IGROV1 ovarian
K-562 leukemia = system: K-562 leukemia
KM12 colon = system: KM12 colon
LOX IMVI melanoma = system: LOX IMVI melanoma
M14 melanoma = system: M14 melanoma
MALME-3M melanoma = system: MALME-3M melanoma
MCF7 breast = system: MCF7 breast
MDA-MB-231 breast = system: MDA-MB-231 breast
MDA-MB-435 = system: MDA-MB-435
MOLT-4 leukemia = system: MOLT-4 leukemia
NCI-H226 lung = system: NCI-H226 lung
NCI-H23 lung = system: NCI-H23 lung
NCI-H460 lung = system: NCI-H460 lung
NCI-H522 lung = system: NCI-H522 lung
NCI/ADR-RES ovarian = system: NCI/ADR-RES ovarian
OVCAR-3 ovarian = system: OVCAR-3 ovarian
OVCAR-4 ovarian = system: OVCAR-4 ovarian
OVCAR-5 ovarian = system: OVCAR-5 ovarian
PC-3 prostate = system: PC-3 prostate
RPMI-8226 leukemia = system: RPMI-8226 leukemia
RXF 393 renal = system: RXF 393 renal
SF-268 CNS = system: SF-268 CNS
SF-295 CNS = system: SF-295 CNS
SF-539 CNS = system: SF-539 CNS
SK-MEL-2 melanoma = system: SK-MEL-2 melanoma
SK-MEL-28 melanoma = system: SK-MEL-28 melanoma
SK-MEL-5 melanoma = system: SK-MEL-5 melanoma
SK-OV-3 ovarian = system: SK-OV-3 ovarian
SN12C renal = system: SN12C renal
SNB-19 CNS = system: SNB-19 CNS
SNB-75 CNS = system: SNB-75 CNS
SR leukemia = system: SR leukemia
SW-620 colon = system: SW-620 colon
T-47D breast = system: T-47D breast
TK-10 renal = system: TK-10 renal
U251 CNS = system: U251 CNS
UACC-62 melanoma = system: UACC-62 melanoma
UO-31 renal = system: UO-31 renal
CAKI-1 renal = system: CAKI-1 renal
HOP-92 NSCLC = system: HOP-92 NSCLC
OVCAR-8 ovarian = system: OVCAR-8 ovarian
UACC-257 melanoma = system: UACC-257 melanoma

CNc1ccccc1S(=O)(=O)c1ccccc1[N+](=O)[O-]
> 100 µM: TGI (786-0 renal) | TGI (A498 renal) | TGI (A549 NSCLC) | TGI (ACHN renal) | TGI (CCRF-CEM leukemia) | TGI (COLO 205 colon) | TGI (DU-145 prostate) | TGI (EKVX NSCLC) | TGI (HCC-2998 colon) | TGI (HCT-116 colon) | TGI (HCT-15 colon) | TGI (HL-60(TB) leukemia) | TGI (HOP-62 NSCLC) | TGI (HS 578T breast) | TGI (HT29 colon) | TGI (IGROV1 ovarian) | TGI (K-562 leukemia) | TGI (KM12 colon) | TGI (LOX IMVI melanoma) | TGI (M14 melanoma) | TGI (MALME-3M melanoma) | TGI (MCF7 breast) | TGI (MDA-MB-231 breast) | TGI (MDA-MB-435) | TGI (MOLT-4 leukemia) | TGI (NCI-H226 lung) | TGI (NCI-H23 lung) | TGI (NCI-H460 lung) | TGI (NCI-H522 lung) | TGI (NCI/ADR-RES ovarian) | TGI (OVCAR-3 ovarian) | TGI (OVCAR-4 ovarian) | TGI (OVCAR-5 ovarian) | TGI (PC-3 prostate) | TGI (RPMI-8226 leukemia) | TGI (RXF 393 renal) | TGI (SF-268 CNS) | TGI (SF-295 CNS) | TGI (SF-539 CNS) | TGI (SK-MEL-2 melanoma) | TGI (SK-MEL-28 melanoma) | TGI (SK-MEL-5 melanoma) | TGI (SK-OV-3 ovarian) | TGI (SN12C renal) | TGI (SNB-19 CNS) | TGI (SNB-75 CNS) | TGI (SR leukemia) | TGI (SW-620 colon) | TGI (T-47D breast) | TGI (TK-10 renal) | TGI (U251 CNS) | TGI (UACC-62 melanoma) | TGI (UO-31 renal)
65.3 µM: TGI (BT-549 breast)

C=C1C(O)C2C(=C(CC(C)C)C13CC3)C(=O)C(C)(C)C2O (stereo not given)
inactive: GI50 (786-0 renal) > 100 µM | GI50 (A498 renal) > 100 µM | GI50 (A549 NSCLC) > 100 µM | GI50 (ACHN renal) > 100 µM | GI50 (BT-549 breast) > 100 µM | GI50 (CAKI-1 renal) > 100 µM | GI50 (CCRF-CEM leukemia) > 100 µM | GI50 (COLO 205 colon) > 100 µM | GI50 (DU-145 prostate) > 100 µM | GI50 (EKVX NSCLC) > 100 µM | GI50 (HCT-116 colon) > 100 µM | GI50 (HCT-15 colon) > 100 µM | GI50 (HOP-62 NSCLC) > 100 µM | GI50 (HOP-92 NSCLC) > 100 µM | GI50 (HS 578T breast) > 100 µM | GI50 (HT29 colon) > 100 µM | GI50 (IGROV1 ovarian) > 100 µM | GI50 (K-562 leukemia) 0.859 µM | GI50 (KM12 colon) > 100 µM | GI50 (LOX IMVI melanoma) > 100 µM | GI50 (M14 melanoma) > 100 µM | GI50 (MALME-3M melanoma) 89.9 µM | GI50 (MCF7 breast) > 100 µM | GI50 (MDA-MB-231 breast) > 100 µM | GI50 (MDA-MB-435) > 100 µM | GI50 (NCI-H226 lung) > 100 µM | GI50 (NCI-H23 lung) > 100 µM | GI50 (NCI-H460 lung) > 100 µM | GI50 (NCI-H522 lung) > 100 µM | GI50 (NCI/ADR-RES ovarian) > 100 µM | GI50 (OVCAR-3 ovarian) 75.8 µM | GI50 (OVCAR-4 ovarian) > 100 µM | GI50 (OVCAR-5 ovarian) > 100 µM | GI50 (OVCAR-8 ovarian) > 100 µM | GI50 (PC-3 prostate) > 100 µM | GI50 (RPMI-8226 leukemia) 42.1 µM | GI50 (RXF 393 renal) > 100 µM | GI50 (SF-268 CNS) > 100 µM | GI50 (SF-295 CNS) > 100 µM | GI50 (SF-539 CNS) > 100 µM | GI50 (SK-MEL-2 melanoma) > 100 µM | GI50 (SK-MEL-28 melanoma) > 100 µM | GI50 (SK-MEL-5 melanoma) > 100 µM | GI50 (SK-OV-3 ovarian) > 100 µM | GI50 (SNB-19 CNS) > 100 µM | GI50 (SR leukemia) > 100 µM | GI50 (SW-620 colon) > 100 µM | GI50 (T-47D breast) > 100 µM | GI50 (TK-10 renal) > 100 µM | GI50 (U251 CNS) > 100 µM | GI50 (UACC-257 melanoma) > 100 µM | GI50 (UACC-62 melanoma) > 100 µM | GI50 (UO-31 renal) > 100 µM
> 100 µM: TGI (786-0 renal) | TGI (A498 renal) | TGI (A549 NSCLC) | TGI (ACHN renal) | TGI (BT-549 breast) | TGI (CAKI-1 renal) | TGI (CCRF-CEM leukemia) | TGI (COLO 205 colon) | TGI (DU-145 prostate) | TGI (EKVX NSCLC) | TGI (HCT-116 colon) | TGI (HCT-15 colon) | TGI (HOP-62 NSCLC) | TGI (HOP-92 NSCLC) | TGI (HS 578T breast) | TGI (HT29 colon) | TGI (IGROV1 ovarian) | TGI (K-562 leukemia) | TGI (KM12 colon) | TGI (LOX IMVI melanoma) | TGI (M14 melanoma) | TGI (MALME-3M melanoma) | TGI (MCF7 breast) | TGI (MDA-MB-231 breast) | TGI (MDA-MB-435) | TGI (NCI-H226 lung) | TGI (NCI-H23 lung) | TGI (NCI-H460 lung) | TGI (NCI-H522 lung) | TGI (NCI/ADR-RES ovarian) | TGI (OVCAR-3 ovarian) | TGI (OVCAR-4 ovarian) | TGI (OVCAR-5 ovarian) | TGI (OVCAR-8 ovarian) | TGI (PC-3 prostate) | TGI (RPMI-8226 leukemia) | TGI (RXF 393 renal) | TGI (SF-268 CNS) | TGI (SF-295 CNS) | TGI (SF-539 CNS) | TGI (SK-MEL-2 melanoma) | TGI (SK-MEL-28 melanoma) | TGI (SK-MEL-5 melanoma) | TGI (SK-OV-3 ovarian) | TGI (SNB-19 CNS) | TGI (SR leukemia) | TGI (SW-620 colon) | TGI (T-47D breast) | TGI (TK-10 renal) | TGI (U251 CNS) | TGI (UACC-257 melanoma) | TGI (UACC-62 melanoma) | TGI (UO-31 renal)
